Laboratory results published in patent US6914045B2, “Glycopeptide antibiotics” (Wyeth Holdings Corporation, priority 2001, dated 2005).
Converted amounts (≈) assume the structure as drawn. Read-outs that look alike come from different tables or passages of the source. Values belong to the compound of their own block, whether it stands above or below them.

What was measured:
Assay in all cases: in vitro antibacterial evaluation, MIC by broth dilution
Format in all cases: cell-based
Enterococcus sp. = test system: Enterococcus sp.
How it was run: (§1)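 Following National Committee for Clinical Laboratory Standards recommendations (M7-A2), susceptibility was measured by dilution in Muller-Hinton II […]. Bacteria were seeded at 5×10^5 CFU/mL against compound concentrations from 64 down to 0.06 μg/mL.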

Streptococcus sp. = test system: Streptococcus sp.
How it was run: as §1

Staphylococcus sp. = test system: Staphylococcus sp.
How it was run: as §1

Escherichia coli = test system: Escherichia coli
How it was run: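 Broth dilution in Muller-Hinton II medium per NCCLS standard M7-A2, with an inoculum of 5×10^5 CFU/mL and antibiotic tested over 64-0.06 μg/mL. MIC was taken as the lowest concentration inhibiting visible growth.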

[1] = broth dilution, 18 hours at 35° C.

SMILES: CC(c1ccccc1)C1NC(=O)CNC(=O)C(CO)NC(=O)C(C(O)C2CNC(=N)N2C2OC(CO)C(O)C(O)C2O)NC(=O)C(C(O)C2CNC(=N)N2)NC(=O)C(Cc2ccc3oc(-c4ccc(-c5ccccc5)cc4)nc3c2)NC1=O (stereo not drawn) [Example 33, Cyclo[3-[2-([1,1-biphenyl]-4-yl)-1,3-benzoxazol-5-yl]alanyl-3-(2-iminoimidazolidin-4-yl)-seryl-3-(3-hexopyranosyl-2-iminoimidazolidin-4-yl)serylserylglycyl-β-methylphenylalanyl]]
- MIC Enterococcus avium (GC 4558) (Enterococcus sp.): 8 µg/mL (≈ 6.97 µM)
- MIC Enterococcus faecalis (ATCC 29212) (Enterococcus sp.): 32 µg/mL (≈ 27.9 µM)
- MIC Enterococcus faecalis (GC 2242) (Enterococcus sp.): 16 µg/mL (≈ 13.9 µM)
- MIC Enterococcus faecalis (GC 2691) (Enterococcus sp.): 16 µg/mL (≈ 13.9 µM)
- MIC Enterococcus faecalis (GC 3059) (Enterococcus sp.): 32 µg/mL (≈ 27.9 µM)
- MIC Enterococcus faecalis (GC 4552) (Enterococcus sp.): 16 µg/mL (≈ 13.9 µM)
- MIC Enterococcus faecalis (GC 4553) (Enterococcus sp.): 16 µg/mL (≈ 13.9 µM)
- MIC Enterococcus faecalis (GC 4554) (Enterococcus sp.): 16 µg/mL (≈ 13.9 µM)
- MIC Enterococcus faecalis (GC 6189) (Enterococcus sp.): 16 µg/mL (≈ 13.9 µM)
- MIC Enterococcus faecium (GC 2243) (Enterococcus sp.): 8 µg/mL (≈ 6.97 µM)
- MIC Enterococcus faecium (GC 4556) (Enterococcus sp.): 64 µg/mL (≈ 55.7 µM)
- MIC Enterococcus faecium (GC 4557) (Enterococcus sp.): 4 µg/mL (≈ 3.48 µM)
- MIC Streptococcus agalactiae (GC 4564) (Streptococcus sp.): 32 µg/mL (≈ 27.9 µM)
- MIC Streptococcus pneumoniae (ATCC 6301) (Streptococcus sp.): 32 µg/mL (≈ 27.9 µM)
- MIC Streptococcus pneumoniae (GC 1894) (Streptococcus sp.): 32 µg/mL (≈ 27.9 µM)
- MIC Streptococcus pneumoniae (GC 4565) (Streptococcus sp.): 64 µg/mL (≈ 55.7 µM)
- MIC Streptococcus pyogenes (GC 4563) (Streptococcus sp.): 16 µg/mL (≈ 13.9 µM)
- MIC Coagulase Negative Staphylococcus (GC 4547) (Staphylococcus sp.): 4 µg/mL (≈ 3.48 µM)
- MIC Coagulase Negative Staphylococcus (GC 4548) (Staphylococcus sp.): 4 µg/mL (≈ 3.48 µM)
- MIC Coagulase Negative Staphylococcus (GC 4549) (Staphylococcus sp.): 1 µg/mL (≈ 0.871 µM)
- MIC Coagulase Negative Staphylococcus (GC 4551) (Staphylococcus sp.): 8 µg/mL (≈ 6.97 µM)
- MIC Coagulase Negative Staphylococcus (GC 6257) (Staphylococcus sp.): 4 µg/mL (≈ 3.48 µM)
- MIC Staphylococcus aureus (ATCC 29213) (Staphylococcus sp.): 8 µg/mL (≈ 6.97 µM)
- MIC Staphylococcus aureus (GC 1131) (Staphylococcus sp.): 4 µg/mL (≈ 3.48 µM)
- MIC Staphylococcus aureus (GC 3051) (Staphylococcus sp.): 16 µg/mL (≈ 13.9 µM)
- MIC Staphylococcus aureus (GC 3053) (Staphylococcus sp.): 8 µg/mL (≈ 6.97 µM)
- MIC Staphylococcus aureus (GC 4541) (Staphylococcus sp.): 8 µg/mL (≈ 6.97 µM)
- MIC Staphylococcus aureus (GC 4542) (Staphylococcus sp.): 8 µg/mL (≈ 6.97 µM)
- MIC Staphylococcus aureus (GC 4544) (Staphylococcus sp.): 4 µg/mL (≈ 3.48 µM)
- MIC Staphylococcus aureus (GC 4545) (Staphylococcus sp.): 8 µg/mL (≈ 6.97 µM)
- MIC Staphylococcus aureus-SMITH (GC 4543) (Staphylococcus sp.): 4 µg/mL (≈ 3.48 µM)
- MIC Staphylococcus haemolyticus (GC 4546) (Staphylococcus sp.): 4 µg/mL (≈ 3.48 µM)
- MIC Escherichia coli (ATCC 25922) (Escherichia coli): 64 µg/mL (≈ 55.7 µM)
- MIC Escherichia coli (GC 4559) (Escherichia coli): 64 µg/mL (≈ 55.7 µM)
- MIC Escherichia coli (GC 4560) (Escherichia coli): 16 µg/mL (≈ 13.9 µM)

- MIC Enterococcus avium (GC 4558) (Enterococcus sp.; [1]): 4 µg/mL (≈ 2.83 µM)
- MIC Enterococcus faecalis (ATCC 29212) (Enterococcus sp.; [1]): 4 µg/mL (≈ 2.83 µM)
- MIC Enterococcus faecalis (GC 2242) (Enterococcus sp.; [1]): 4 µg/mL (≈ 2.83 µM)
- MIC Enterococcus faecalis (GC 2691) (Enterococcus sp.; [1]): 4 µg/mL (≈ 2.83 µM)
- MIC Enterococcus faecalis (GC 3059) (Enterococcus sp.; [1]): 4 µg/mL (≈ 2.83 µM)
- MIC Enterococcus faecalis (GC 4552) (Enterococcus sp.; [1]): 4 µg/mL (≈ 2.83 µM)
- MIC Enterococcus faecalis (GC 4553) (Enterococcus sp.; [1]): 4 µg/mL (≈ 2.83 µM)
- MIC Enterococcus faecalis (GC 4554) (Enterococcus sp.; [1]): 4 µg/mL (≈ 2.83 µM)
- MIC Enterococcus faecalis (GC 6189) (Enterococcus sp.; [1]): 4 µg/mL (≈ 2.83 µM)
- MIC Enterococcus faecium (GC 2243) (Enterococcus sp.; [1]): 4 µg/mL (≈ 2.83 µM)
- MIC Enterococcus faecium (GC 4556) (Enterococcus sp.; [1]): 4 µg/mL (≈ 2.83 µM)
- MIC Enterococcus faecium (GC 4557) (Enterococcus sp.; [1]): 4 µg/mL (≈ 2.83 µM)
- MIC Enterococcus faecalis (ATCC 29212) (Enterococcus sp.; broth dilution, inoculum 5×10^5 CFU/mL, 18 hours at 35° C., strain ATCC 29212): 4 µg/mL (≈ 2.83 µM)
- MIC Enterococcus faecalis (GC 2242) (Enterococcus sp.; broth dilution, inoculum 5×10^5 CFU/mL, 18 hours at 35° C., strain GC 2242): 4 µg/mL (≈ 2.83 µM)
- MIC Enterococcus faecium (GC 2243) (Enterococcus sp.; broth dilution, inoculum 5×10^5 CFU/mL, 18 hours at 35° C., strain GC 2243): 4 µg/mL (≈ 2.83 µM)
- MIC Enterococcus faecalis (GC 2691) (Enterococcus sp.; broth dilution, inoculum 5×10^5 CFU/mL, 18 hours at 35° C., strain GC 2691): 4 µg/mL (≈ 2.83 µM)
- MIC Enterococcus faecalis (GC 3059) (Enterococcus sp.; broth dilution, inoculum 5×10^5 CFU/mL, 18 hours at 35° C., strain GC 3059): 4 µg/mL (≈ 2.83 µM)
- MIC Enterococcus faecalis (GC 4552) (Enterococcus sp.; broth dilution, inoculum 5×10^5 CFU/mL, 18 hours at 35° C., strain GC 4552): 4 µg/mL (≈ 2.83 µM)
- MIC Enterococcus faecalis (GC 4553) (Enterococcus sp.; broth dilution, inoculum 5×10^5 CFU/mL, 18 hours at 35° C., strain GC 4553): 4 µg/mL (≈ 2.83 µM)
- MIC Enterococcus faecalis (GC 4554) (Enterococcus sp.; broth dilution, inoculum 5×10^5 CFU/mL, 18 hours at 35° C., strain GC 4554): 4 µg/mL (≈ 2.83 µM)
- MIC Enterococcus faecium (GC 4556) (Enterococcus sp.; broth dilution, inoculum 5×10^5 CFU/mL, 18 hours at 35° C., strain GC 4556): 4 µg/mL (≈ 2.83 µM)
- MIC Enterococcus faecium (GC 4557) (Enterococcus sp.; broth dilution, inoculum 5×10^5 CFU/mL, 18 hours at 35° C., strain GC 4557): 4 µg/mL (≈ 2.83 µM)
- MIC Enterococcus avium (GC 4558) (Enterococcus sp.; broth dilution, inoculum 5×10^5 CFU/mL, 18 hours at 35° C., strain GC 4558): 4 µg/mL (≈ 2.83 µM)
- MIC Enterococcus faecalis (GC 6189) (Enterococcus sp.; broth dilution, inoculum 5×10^5 CFU/mL, 18 hours at 35° C., strain GC 6189): 4 µg/mL (≈ 2.83 µM)
- MIC Streptococcus agalactiae (GC 4564) (Streptococcus sp.; [1]): 0.5 µg/mL (≈ 0.353 µM)
- MIC Streptococcus pneumoniae (ATCC 6301) (Streptococcus sp.; [1]): 0.25 µg/mL (≈ 0.177 µM)
- MIC Streptococcus pneumoniae (GC 1894) (Streptococcus sp.; [1]): <0.06 µg/mL
- MIC Streptococcus pneumoniae (GC 4565) (Streptococcus sp.; [1]): 0.25 µg/mL (≈ 0.177 µM)
- MIC Streptococcus pyogenes (GC 4563) (Streptococcus sp.; [1]): 0.5 µg/mL (≈ 0.353 µM)
- MIC Streptococcus pneumoniae (ATCC 6301) (Streptococcus sp.; broth dilution, inoculum 5×10^5 CFU/mL, 18 hours at 35° C., strain ATCC 6301): 0.25 µg/mL (≈ 0.177 µM)
- MIC Streptococcus pneumoniae (GC 1894) (Streptococcus sp.; broth dilution, inoculum 5×10^5 CFU/mL, 18 hours at 35° C., strain GC 1894): <0.06 µg/mL
- MIC Streptococcus pyogenes (GC 4563) (Streptococcus sp.; broth dilution, inoculum 5×10^5 CFU/mL, 18 hours at 35° C., strain GC 4563): 0.5 µg/mL (≈ 0.353 µM)
- MIC Streptococcus agalactiae (GC 4564) (Streptococcus sp.; broth dilution, inoculum 5×10^5 CFU/mL, 18 hours at 35° C., strain GC 4564): 0.5 µg/mL (≈ 0.353 µM)
- MIC Streptococcus pneumoniae (GC 4565) (Streptococcus sp.; broth dilution, inoculum 5×10^5 CFU/mL, 18 hours at 35° C., strain GC 4565): 0.25 µg/mL (≈ 0.177 µM)
- MIC Staphylococcus aureus (ATCC 29213) (Staphylococcus sp.; strain ATCC 29213, broth dilution, 18 hours at 35° C.): 2 µg/mL (≈ 1.41 µM)
- MIC Staphylococcus aureus (GC 1131) (Staphylococcus sp.; strain GC 1131, broth dilution, 18 hours at 35° C.): 2 µg/mL (≈ 1.41 µM)
- MIC Staphylococcus aureus (GC 3051) (Staphylococcus sp.; strain GC 3051, broth dilution, 18 hours at 35° C.): 2 µg/mL (≈ 1.41 µM)
- MIC Staphylococcus aureus (GC 3053) (Staphylococcus sp.; strain GC 3053, broth dilution, 18 hours at 35° C.): 2 µg/mL (≈ 1.41 µM)
- MIC Staphylococcus aureus (GC 4541) (Staphylococcus sp.; strain GC 4541, broth dilution, 18 hours at 35° C.): 1 µg/mL (≈ 0.707 µM)
- MIC Staphylococcus aureus (GC 4542) (Staphylococcus sp.; strain GC 4542, broth dilution, 18 hours at 35° C.): 1 µg/mL (≈ 0.707 µM)
- MIC Staphylococcus aureus-SMITH (GC 4543) (Staphylococcus sp.; strain GC 4543, broth dilution, 18 hours at 35° C.): 2 µg/mL (≈ 1.41 µM)
- MIC Staphylococcus aureus (GC 4544) (Staphylococcus sp.; strain GC 4544, broth dilution, 18 hours at 35° C.): 2 µg/mL (≈ 1.41 µM)
- MIC Staphylococcus aureus (GC 4545) (Staphylococcus sp.; strain GC 4545, broth dilution, 18 hours at 35° C.): 1 µg/mL (≈ 0.707 µM)
- MIC Coagulase Negative Staphylococcus (GC 4547) (Staphylococcus sp.; strain GC 4547, broth dilution, 18 hours at 35° C.): 2 µg/mL (≈ 1.41 µM)
- MIC Coagulase Negative Staphylococcus (GC 4548) (Staphylococcus sp.; strain GC 4548, broth dilution, 18 hours at 35° C.): 1 µg/mL (≈ 0.707 µM)
- MIC Coagulase Negative Staphylococcus (GC 4549) (Staphylococcus sp.; strain GC 4549, broth dilution, 18 hours at 35° C.): 1 µg/mL (≈ 0.707 µM)
- MIC Coagulase Negative Staphylococcus (GC 4551) (Staphylococcus sp.; strain GC 4551, broth dilution, 18 hours at 35° C.): 2 µg/mL (≈ 1.41 µM)
- MIC Coagulase Negative Staphylococcus (GC 6257) (Staphylococcus sp.; strain GC 6257, broth dilution, 18 hours at 35° C.): 1 µg/mL (≈ 0.707 µM)
- MIC Escherichia coli (ATCC 25922) (Escherichia coli; 18 hours at 35° C.): 32 µg/mL (≈ 22.6 µM)
- MIC Escherichia coli (GC 4559) (Escherichia coli; 18 hours at 35° C.): 16 µg/mL (≈ 11.3 µM)
- MIC Escherichia coli (GC 4560) (Escherichia coli; 18 hours at 35° C.): 2 µg/mL (≈ 1.41 µM)
SMILES: CC(c1ccccc1)C1NC(=O)CNC(=O)C(CO)NC(=O)C(C(O)C2CNC(=N)N2C2OC(CO)C(O)C(O)C2O)NC(=O)C(C(O)C2CNC(=N)N2)NC(=O)C(Cc2ccc(OC3OC(CO)C(OC4OC5COC(C)(c6ccc(F)cc6)OC5C(O)C4O)C(O)C3O)cc2)NC1=O (stereo not drawn) [Example 216]
- MIC Staphylococcus haemolyticus (GC 4546) (Staphylococcus sp.; strain GC 4546, broth dilution, 18 hours at 35° C.): 1 µg/mL (≈ 0.707 µM)
